Measurements: ChEMBL document CHEMBL1909546, “Antiviral activity of novel 2'-fluoro-6'-methylene-carbocyclic adenosine against wild-type and drug-resistant hepatitis B virus mutants” (Bioorg Med Chem Lett, 2011)

Tests used:
Hepatitis B virus [1] = test: Antiviral activity against adefovir-resistant Hepatitis B virus harboring reverse transcriptase N236T mutant infected in human HepG2(2.2.15) cells assessed as inhibition of virus replication treated daily for 9 days by quantitative blot hybridization method; format: functional, organism-based; settings: HepG2 2.2.15, 216 h
[2] = Cytotoxicity against human HepG2(2.2.15) cells after 24 hrs by neutral red dye uptake assay; format: cell-based
Hepatitis B virus [3] = test: Antiviral activity against lamivudine/entecavir-resistant Hepatitis B virus harboring reverse transcriptase L180M/M204V/S202G infected in human HepG2(2.2.15) cells assessed as inhibition of virus replication treated daily for 9 days by quantitative blot hybridization method; format: functional, organism-based; settings: HepG2 2.2.15, 216 h
Hepatitis B virus [4] = test: Antiviral activity against lamivudine-resistant Hepatitis B virus harboring reverse transcriptase L180M/M204V double mutant infected in human HepG2(2.2.15) cells assessed as inhibition of virus replication treated daily for 9 days by quantitative blot hybridization method; format: functional, organism-based; settings: HepG2 2.2.15, 216 h
Hepatitis B virus [5] = test: Antiviral activity against adefovir-resistant Hepatitis B virus harboring reverse transcriptase N236T mutant infected in human HepG2(2.2.15) cells assessed as reduction of infectious virus titer treated daily for 9 days by quantitative Southern blot hybridization assay; format: functional; settings: HepG2 2.2.15, 216 h
Hepatitis B virus [6] = test: Antiviral activity against lamivudine-resistant Hepatitis B virus harboring reverse transcriptase M204V mutant infected in human HepG2(2.2.15) cells assessed as reduction of infectious virus titer treated daily for 9 days by quantitative Southern blot hybridization assay; format: functional; settings: HepG2 2.2.15, 216 h
Hepatitis B virus [7] = test: Ratio of adefovir EC90 to compound EC90 for adefovir-resistant Hepatitis B virus harboring reverse transcriptase N236T mutant; format: functional
Hepatitis B virus [8] = test: Antiviral activity against lamivudine-resistant Hepatitis B virus harboring reverse transcriptase M204I mutant infected in human HepG2(2.2.15) cells assessed as reduction of infectious virus titer treated daily for 9 days by quantitative Southern blot hybridization assay; format: functional; settings: HepG2 2.2.15, 216 h
Hepatitis B virus [9] = test: Antiviral activity against lamivudine-resistant Hepatitis B virus harboring reverse transcriptase L180M mutant infected in human HepG2(2.2.15) cells assessed as reduction of infectious virus titer treated daily for 9 days by quantitative Southern blot hybridization assay; format: functional; settings: HepG2 2.2.15, 216 h
Hepatitis B virus [10] = test: Fold resistance, ratio of EC90 for adefovir-resistant Hepatitis B virus harboring reverse transcriptase N236T mutant to EC90 for wild type Hepatitis B virus; format: functional
[11] = Stability of the compound assessed as resistance to calf thymus adenosine deaminase; format: ADME; settings: cattle
Hepatitis B virus [12] = test: Ratio of Lamivudine EC90 to compound EC90 for Lamivudine-resistant Hepatitis B virus harboring reverse transcriptase L180M mutant; format: functional
Hepatitis B virus [13] = test: Fold resistance, ratio of EC90 for lamivudine-resistant Hepatitis B virus harboring reverse transcriptase M204I mutant to EC90 for wild type Hepatitis B virus; format: functional
Hepatitis B virus [14] = test: Antiviral activity against lamivudine-resistant Hepatitis B virus harboring reverse transcriptase L180M/M204V double mutant infected in human HepG2(2.2.15) cells assessed as reduction of infectious virus titer treated daily for 9 days by quantitative Southern blot hybridization assay; format: functional; settings: HepG2 2.2.15, 216 h
Hepatitis B virus [15] = test: Antiviral activity against wild type Hepatitis B virus infected in human HepG2(2.2.15) cells assessed as inhibition of virus replication treated daily for 9 days by quantitative blot hybridization method; format: functional, organism-based; settings: HepG2 2.2.15, 216 h
Hepatitis B virus [16] = test: Antiviral activity against wild type Hepatitis B virus infected in human HepG2(2.2.15) cells assessed as reduction of infectious virus titer treated daily for 9 days by quantitative Southern blot hybridization assay; format: functional; settings: HepG2 2.2.15, 216 h
Hepatitis B virus [17] = test: Antiviral activity against lamivudine-resistant Hepatitis B virus harboring reverse transcriptase M204V mutant infected in human HepG2(2.2.15) cells assessed as inhibition of virus replication treated daily for 9 days by quantitative blot hybridization method; format: functional, organism-based; settings: HepG2 2.2.15, 216 h
Hepatitis B virus [18] = test: Antiviral activity against lamivudine-resistant Hepatitis B virus harboring reverse transcriptase M204I mutant infected in human HepG2(2.2.15) cells assessed as inhibition of virus replication treated daily for 9 days by quantitative blot hybridization method; format: functional, organism-based; settings: HepG2 2.2.15, 216 h
Hepatitis B virus [19] = test: Ratio of adefovir EC90 to compound EC90 for wild type Hepatitis B virus; format: functional
Hepatitis B virus [20] = test: Ratio of adefovir EC50 to compound EC50 for adefovir-resistant Hepatitis B virus harboring reverse transcriptase N236T mutant; format: functional
Hepatitis B virus [21] = test: Fold resistance, ratio of EC90 for lamivudine-resistant Hepatitis B virus harboring reverse transcriptase M204V mutant to EC90 for wild type Hepatitis B virus; format: functional
Hepatitis B virus [22] = test: Fold resistance, ratio of EC90 for lamivudine-resistant Hepatitis B virus harboring reverse transcriptase L180M/M204V double mutant to EC90 for wild type Hepatitis B virus; format: functional
Hepatitis B virus [23] = test: Fold resistance, ratio of EC90 for lamivudine-resistant Hepatitis B virus harboring reverse transcriptase L180M mutant to EC90 for wild type Hepatitis B virus; format: functional
Hepatitis B virus [24] = test: Antiviral activity against lamivudine-resistant Hepatitis B virus harboring reverse transcriptase L180M mutant infected in human HepG2(2.2.15) cells assessed as inhibition of virus replication treated daily for 9 days by quantitative blot hybridization method; format: functional, organism-based; settings: HepG2 2.2.15, 216 h

SMILES | EC50 (Hepatitis B virus [1]) | CC50 at 24 h [2] | EC50 (Hepatitis B virus [3]) | EC50 (Hepatitis B virus [4]) | EC90 (Hepatitis B virus [5]) | EC90 (Hepatitis B virus [6]) | EC90 (Hepatitis B virus [8]) | EC90 (Hepatitis B virus [9]) | Ratio (Hepatitis B virus [10]) | Ratio (Hepatitis B virus [13]) | EC90 (Hepatitis B virus [14]) | EC50 (Hepatitis B virus [15]) | EC90 (Hepatitis B virus [16]) | EC50 (Hepatitis B virus [17]) | EC50 (Hepatitis B virus [18]) | Ratio (Hepatitis B virus [21]) | Ratio (Hepatitis B virus [22]) | Ratio (Hepatitis B virus [23]) | EC50 (Hepatitis B virus [24]) | also measured
C=C1[C@@H](n2cnc3c(N)ncnc32)[C@@H](F)[C@H](O)[C@H]1CO | 1.7 µM | > 100 µM | 0.67 µM | 2.2 µM | 4.6 µM | 4.7 µM | 5 µM | 5.1 µM | 1 | 1.1 | 5.5 µM | 1.5 µM | 4.5 µM | 1.8 µM | 1 µM | 1 | 1.2 | 1.1 | 2.1 µM | Ratio (Hepatitis B virus [7]): 7.8; Stability [11]: Stable; Ratio (Hepatitis B virus [12]): 4.3; Ratio (Hepatitis B virus [19]): 1.5; Ratio EC50 (Hepatitis B virus [20]): 4.5
C=C1[C@H](CO)[C@@H](O)C[C@@H]1n1cnc2c(=O)[nH]c(N)nc21 [ENTECAVIR] | – | 28 µM | 1.2 µM | – | – | – | – | – | – | – | – | 0.008 µM | 0.033 µM | – | – | – | – | – | – | –
Nc1ccn([C@@H]2CS[C@H](CO)O2)c(=O)n1 [LAMIVUDINE] | – | – | > 500 µM | > 100 µM | 0.9 µM | > 100 µM | > 100 µM | 22 µM | 1.5 | >166 | > 100 µM | – | 0.6 µM | > 100 µM | > 100 µM | >166 | >166 | 36.7 | 1.5 µM | –
Nc1ncnc2c1ncn2CCOCP(=O)(O)O [ADEFOVIR] | 7.8 µM | – | – | 2.1 µM | 36 µM | 7 µM | 8 µM | 7.7 µM | 5.1 | 1.1 | 8.5 µM | 1.3 µM | 7.1 µM | 1.6 µM | 1.9 µM | 1 | 1.2 | 1.1 | 5.5 µM | –
